# Assay results published in ChEMBL document CHEMBL6153094, “Rationally designed highly amphipathic antimicrobial peptides demonstrating superior bacterial selectivity relative to the corresponding α-helix peptide” (Eur J Med Chem, 2025).
# Active and inactive are the calls of the source. The calls are words filed in the database; no cut-off is given here. Where a SMILES comes first, the peptide text is derived from it. Bridges are numbered along the chain shown (N, C = ends). [ ]: non-standard residue; d: D form. The star is where a group is joined. X1 = CC[C@H](C)CCCCC(=O)*; dDab = NCC[C@@H](N)C(=O)O; Dab = NCC[C@H](N)C(=O)O
# Experiments:
# [1] = tested on: Cell membrane; test: Disruption of outer membrane integrity in Pseudomonas aeruginosa ATCC 27853 assessed as increase in fluorescence intensity at 2 times of MIC measured for 12 mins by NPN uptake assay; format: subcellular
# [2] = tested on: Pseudomonas aeruginosa; test: Antibiofilm activity in Pseudomonas aeruginosa ATCC 27853 assessed as inhibition of biofilm formation at 1/2 times of MIC incubated for 24 hrs by crystal violet staining based analysis; format: functional, organism-based
# [3] = tested on: Pseudomonas aeruginosa; test: Antibacterial activity against Pseudomonas aeruginosa ATCC 27853 incubated for 18 hrs in presence of 2.5% serum by broth microdilution method; format: functional, organism-based
# [4] = tested on: Pseudomonas aeruginosa; test: Bactericidal activity against Pseudomonas aeruginosa ATCC 27853 assessed as bacterial eradication at 4 times of MIC measured within 30 mins by time-kill kinetics assay; format: functional, organism-based
# [5] = tested on: Pseudomonas aeruginosa; test: Induction of morphological changes in Pseudomonas aeruginosa ATCC 27853 assessed as content leakage at 2 times of MIC incubated for 30 to 120 mins by SEM analysis; format: functional, organism-based; conditions: time 30-120 min
# [6] = tested on: Cell membrane; test: Induction of inner membrane permeabilization in Escherichia coli ML-35 ATCC 43837 assessed as increase in […] measured for 135 mins by ONPG based analysis; format: subcellular
# [7] = tested on: Pseudomonas aeruginosa; test: Induction of morphological changes in Pseudomonas aeruginosa ATCC 27853 assessed as cell adhesion at 2 times of MIC incubated for 30 to 120 mins by SEM analysis; format: functional, organism-based; conditions: time 30-120 min
# [8] = tested on: DNA; test: Binding affinity to Pseudomonas aeruginosa ATCC 27853 DNA at 1 to 8 times of MIC measured after 30 mins by agarose gel electrophoresis; format: nucleic-acid assay
# [9] = tested on: Staphylococcus aureus; test: Antibacterial activity against Staphylococcus aureus ATCC 25923 incubated for 18 hrs in presence of 2.5% serum by broth microdilution method; format: functional, organism-based
# [10] = tested on: Pseudomonas aeruginosa; test: Antibacterial activity against Pseudomonas aeruginosa ATCC 27853 incubated for 18 hrs in presence of 10% serum by broth microdilution method; format: functional, organism-based
# [11] = tested on: Cell membrane; test: Disruption of outer membrane integrity in Pseudomonas aeruginosa ATCC 27853 assessed as increase in fluorescence intensity at 4 times of MIC measured for 12 mins by NPN uptake assay; format: subcellular
# [12] = tested on: Staphylococcus aureus; test: Induction of morphological changes in Staphylococcus aureus ATCC 25923 assessed as cellular fragmentation at 2 times of MIC incubated for 30 to 120 mins by SEM analysis; format: functional, organism-based; conditions: time 30-120 min
# [13] = tested on: Pseudomonas aeruginosa; test: Bactericidal activity against Pseudomonas aeruginosa ATCC 27853 assessed as bacterial eradication at 2 times of MIC measured within 30 mins by time-kill kinetics assay; format: functional, organism-based
# [14] = tested on: Pseudomonas aeruginosa; test: Bactericidal activity against Pseudomonas aeruginosa ATCC 27853 assessed as bacterial killing at 1 to 4 times of MIC by time-kill kinetics assay; format: functional, organism-based; conditions: time <= 360.0 min
# [15] = tested on: Pseudomonas aeruginosa; test: Induction of morphological changes in Pseudomonas aeruginosa ATCC 27853 assessed as cellular fragmentation at 2 times of MIC incubated for 30 to 120 mins by SEM analysis; format: functional, organism-based; conditions: time 30-120 min
# [16] = tested on: Staphylococcus aureus; test: Induction of morphological changes in Staphylococcus aureus ATCC 25923 assessed as membrane disruption at 2 times of MIC incubated for 30 to 120 mins by SEM analysis; format: functional, organism-based; conditions: time 30-120 min
# [17] = tested on: Staphylococcus aureus; test: Bactericidal activity against Staphylococcus aureus ATCC 25923 assessed as bacterial eradication at 4 times of MIC measured after 120 mins by time-kill kinetics assay; format: functional, organism-based
# [18] = tested on: Staphylococcus aureus; test: Bactericidal activity against Staphylococcus aureus ATCC 25923 assessed as bacterial killing measured upto 360 mins by time-kill kinetics assay; format: functional, organism-based
# [19] = tested on: Staphylococcus aureus; test: Antibacterial activity against methicillin-resistant Staphylococcus aureus ATCC 33591 infected in male Balb/c mouse model of full thickness skin wound assessed as reduction in bacteria in skin wound at 1 mg/ml pre-infected with bacteria for 1 hrs followed by compound administration at 1,24,48 and 72 hrs post infection and measured after 10 days by photographic analysis; format: functional, organism-based; conditions: time 10.0 day
# [20] = tested on: Staphylococcus aureus; test: Antibacterial activity against methicillin-resistant Staphylococcus aureus ATCC 33591 infected in male Balb/c mouse model of full thickness skin wound assessed as reduction in bacterial load in skin at 1 mg/ml pre-infected with bacteria for 1 hrs followed by compound administration at 1,24,48 and 72 hrs post infection and measured 60 hrs post infection by agar plate method; format: functional, organism-based; conditions: time 59.0 hrs
# [21] = tested on: Cell membrane; test: Disruption of membrane integrity in Pseudomonas aeruginosa ATCC 27853 at 2 times of MIC incubated for 30 to 120 mins by SEM analysis; format: subcellular; conditions: time 30-120 min
# [22] = tested on: Staphylococcus aureus; test: Bactericidal activity against Staphylococcus aureus ATCC 25923 assessed as bacterial killing at 1 to 4 times of MIC by time-kill kinetics assay; format: functional, organism-based; conditions: time <= 360.0 min
# [23] = tested on: Pseudomonas aeruginosa; test: Antibacterial activity against Pseudomonas aeruginosa ATCC 27853 incubated for 18 hrs in presence of 5% serum by broth microdilution method; format: functional, organism-based
# [24] = tested on: Staphylococcus aureus; test: Induction of morphological changes in Staphylococcus aureus ATCC 25923 assessed as blister formation at 2 times of MIC incubated for 30 to 120 mins by SEM analysis; format: functional, organism-based; conditions: time 30-120 min
# [25] = tested on: Cell membrane; test: Disruption of outer membrane integrity in Pseudomonas aeruginosa ATCC 27853 assessed as increase in fluorescence intensity at 1 times of MIC measured for 12 mins by NPN uptake assay; format: subcellular
# [26] = tested on: Klebsiella pneumoniae; test: Antibacterial activity against Klebsiella pneumoniae ATCC 700603 infected in male Balb/c mouse model of pneumonia assessed as decrease in decrease in TNF-alpha level in lung at 5 mg/kg, ip administered at 4 and 12 hrs post-infected and measured after 24 hrs by ELISA; format: functional, organism-based; conditions: time 20.0 hrs
# [27] = tested on: Pseudomonas aeruginosa; test: Bactericidal activity against Pseudomonas aeruginosa ATCC 27853 assessed as bacterial eradication at 1 times of MIC measured within 30 mins by time-kill kinetics assay; format: functional, organism-based
# [28] = tested on: Staphylococcus aureus; test: Bactericidal activity against Staphylococcus aureus ATCC 25923 assessed as bacterial eradication at 1 times of MIC measured after 360 mins by time-kill kinetics assay; format: functional, organism-based
# [29] = tested on: Cell membrane; test: Disruption of membrane integrity in Staphylococcus aureus ATCC 25923 at 2 times of MIC incubated for 30 to 120 mins by SEM analysis; format: subcellular; conditions: time 30-120 min
# [30] = tested on: Staphylococcus aureus; test: Antibacterial activity against Staphylococcus aureus ATCC 25923 incubated for 18 hrs in presence of 5% serum by broth microdilution method; format: functional, organism-based
# [31] = tested on: Staphylococcus aureus; test: Antibacterial activity against Staphylococcus aureus ATCC 25923 incubated for 18 hrs in presence of 10% serum by broth microdilution method; format: functional, organism-based
# [32] = tested on: Pseudomonas aeruginosa; test: Antibacterial activity against Pseudomonas aeruginosa ATCC 27853 assessed as inhibition of bacterial growth compound pretreated with 32 microg/ml of LPS for 1 hrs followed by bacterial addition and measured after 18 hrs by absorbance based assay; format: functional, organism-based
# [33] = tested on: Pseudomonas aeruginosa; test: Induction of morphological changes in Pseudomonas aeruginosa ATCC 27853 assessed as membrane disruption at 2 times of MIC incubated for 30 to 120 mins by SEM analysis; format: functional, organism-based; conditions: time 30-120 min
# [34] = tested on: Staphylococcus aureus; test: Induction of morphological changes in Staphylococcus aureus ATCC 25923 assessed as content leakage at 2 times of MIC incubated for 30 to 120 mins by SEM analysis; format: functional, organism-based; conditions: time 30-120 min
# [35] = tested on: DNA; test: Binding affinity to Staphylococcus aureus ATCC 25923 DNA at 1 to 8 times of MIC measured after 30 mins by agarose gel electrophoresis; format: nucleic-acid assay
# [36] = tested on: Klebsiella pneumoniae; test: Antibacterial activity against Klebsiella pneumoniae ATCC 700603 infected in male Balb/c mouse model of pneumonia assessed as decrease in decrease in IL-1beta level in lung at 5 mg/kg, ip administered at 4 and 12 hrs post-infected and measured after 24 hrs by ELISA; format: functional, organism-based; conditions: time 20.0 hrs
# [37] = tested on: Klebsiella pneumoniae; test: Antibacterial activity against Klebsiella pneumoniae ATCC 700603 infected in male Balb/c mouse model of pneumonia assessed as decrease in bacterial load in lung at 5 mg/kg, ip administered at 4 and 12 hrs post-infected and measured after 24 hrs by agar plate method; format: functional, organism-based; conditions: time 20.0 hrs
# [38] = tested on: Klebsiella pneumoniae; test: Antibacterial activity against Klebsiella pneumoniae ATCC 700603 infected in male Balb/c mouse model of pneumonia assessed as decrease in decrease in IL-6 level in lung at 5 mg/kg, ip administered at 4 and 12 hrs post-infected and measured after 24 hrs by ELISA; format: functional, organism-based; conditions: time 20.0 hrs
# [39] = tested on: Staphylococcus aureus; test: Bactericidal activity against Staphylococcus aureus ATCC 25923 assessed as bacterial eradication at 2 times of MIC measured after 120 mins by time-kill kinetics assay; format: functional, organism-based
# [40] = tested on: Pseudomonas aeruginosa; test: Induction of morphological changes in Pseudomonas aeruginosa ATCC 27853 assessed as blister formation at 2 times of MIC incubated for 30 to 120 mins by SEM analysis; format: functional, organism-based; conditions: time 30-120 min
# [41] = tested on: Pseudomonas aeruginosa; test: Bactericidal activity against Pseudomonas aeruginosa ATCC 27853 assessed as bacterial killing measured upto 360 mins by time-kill kinetics assay; format: functional, organism-based
# [42] = tested on: Staphylococcus aureus; test: Induction of morphological changes in Staphylococcus aureus ATCC 25923 assessed as cell adhesion at 2 times of MIC incubated for 30 to 120 mins by SEM analysis; format: functional, organism-based; conditions: time 30-120 min
smiles,measurement,setting,value
CC(C)CCCCC(=O)N[C@@H](CCN)C(=O)N[C@H](C(=O)N[C@@H](CCN)C(=O)N[C@H]1CCNC(=O)[C@H]([C@@H](C)O)NC(=O)[C@H](CCN)NC(=O)[C@H](CCN)NC(=O)[C@H](CC(C)C)NC(=O)[C@@H](Cc2ccccc2)NC(=O)[C@@H](CCN)NC1=O)[C@@H](C)O.CC[C@H](C)CCCCC(=O)N[C@@H](CCN)C(=O)N[C@H](C(=O)N[C@@H](CCN)C(=O)N[C@H]1CCNC(=O)[C@H]([C@@H](C)O)NC(=O)[C@H](CCN)NC(=O)[C@H](CCN)NC(=O)[C@H](CC(C)C)NC(=O)[C@@H](Cc2ccccc2)NC(=O)[C@@H](CCN)NC1=O)[C@@H](C)O (X1-[Dab]T[Dab][Dab][dDab][dF]L[Dab][Dab]T; lactam 4-C),Activity,[1],Active
same,Activity,[2],inactive
same,Activity,[3],Active
same,Activity,[4],Active
same,Activity,[5],Active
same,Activity,[6],Active; Lower Concentration Of Compound Is Sufficient To Disrupt Inner Membrane
same,Activity,[7],Active
same,Activity,[8],Not active; Weak Binding Affinity Observed
same,Activity,[9],Active
same,Activity,[10],Active
same,Activity,[11],Active; Maximum Permeability Effects Observed
same,Activity,[12],Active
same,Activity,[13],Active
same,Activity,[14],Time-dependent-effect
same,Activity,[15],Active
same,Activity,[16],Active
same,Activity,[17],Active
same,Activity,[18],Dose-dependent-effect
same,Activity,[19],Active; Obvious Facilitation Of Wound Healing Not Observed
same,Activity,[20],Active
same,Activity,[21],Active; Pronounced Detrimental Effect Observed
same,Activity,[22],Time-dependent-effect
same,Activity,[23],Active
same,Activity,[24],Active
same,Activity,[25],Active
same,Activity,[26],Active
same,Activity,[27],Active
same,Activity,[28],Active
same,Activity,[29],Active
same,Activity,[30],Active
same,Activity,[31],Active
same,Activity,[32],Not active; Compound Binds To Lps To Exert Its Activity
same,Activity,[33],Active
same,Activity,[34],Active
same,Activity,[35],Not active; Weak Binding Affinity Observed
same,Activity,[36],Active
same,Activity,[37],Active
same,Activity,[38],inactive
same,Activity,[39],Active
same,Activity,[40],Active
same,Activity,[41],Dose-dependent-effect
same,Activity,[42],Active
